The values below come from a melting point compilation (Tetko et al.; mined from patent text by program, amines drawn as free bases though some values may be those of a salt).

With `COC(=O)COC(=O)C(C)c1ccc2cc(O)ccc2c1` (centres undefined), the melting point lay in the range of 84.5 to 87 °C.

The molecule `CC(=O)NCC1CN(c2ccc(N3CCN(c4nnc(N)s4)C(F)C3)cc2)C(=O)O1` (centres undefined) gave a melting point of 228 to 230 °C.

`Cc1nc(-n2cc(CCCc3ccccc3)nn2)sc1C(=O)NCc1ccc(F)c(F)c1` showed a melting point of 81 to 84 °C.

Turning to `CC(=O)N[C@@H]1CCCC[C@H]1OCC(=O)O` (relative stereo), the melting point was 141 to 143 °C.

Consider `O=C(O)c1nn(-c2ccc(F)cc2F)c2c1[C@H]1CC[C@@H]2C1`, for which the melting point was in the range of 110 to 112 °C.

Regarding `COc1ccc(-c2nnc(Nc3ccc(Cl)c(Cl)c3)s2)cc1OCc1ccccc1`, the melting point is 223 to 224 °C.

`CC(C)CNn1c(=O)c(Oc2ccc(F)cc2F)cc2cnc(SCc3ccccc3)nc21` showed a melting point of 132 to 134 °C.

In turn, `O=C(O)Cc1nn(Cc2ccc(Br)c(Cl)c2)c(=O)c2ccccc12` had a melting point of 186 °C.

Molecule `Cc1cc(OCc2coc(/C=C/c3ccc(S(=O)C(F)(F)F)cc3)n2)ccc1CCCCn1ccnn1` (centres undefined) had a melting point of 113 to 114 °C.

Regarding `O=C(Nc1ccc(NC(=O)OCCCl)nc1)OCCCl`, the melting point worked out at 198 °C.

`Cc1ccc(-c2coc(C=CC(=O)NC3CCC(CN(C)C4CCOCC4)CC3)c2)cc1` (centres undefined) had a melting point of 165 to 167 °C.

In turn, `Cc1nc2cccc3n(CCCCCNS(=O)(=O)C(F)(F)F)c(=O)c1n23` returned a melting point of 149 to 150 °C.

Turning to `OC1Cc2ccccc2Sc2cc(Cl)c(Cl)cc21` (centres undefined), the melting point was 124 to 126 °C.

`CC1(C)CC(S(=O)(=O)Cc2cnccc2C(F)(F)F)=NO1` came in with a melting point of 77 to 80 °C.

`C1=CC[C@@]2(Cc3ccccc3)CN(Cc3ccccc3)C[C@H]2C1` (relative stereo) displayed a melting point of 142 to 144 °C.

Take `COc1ccc(C=C(C#N)c2ccncc2)cc1OC1CCCC1`: the melting point lay in the range of 125 to 127 °C.

`Fc1ccc(C#CCCC#Cc2ccccn2)cc1` had a melting point of 68 to 69 °C.

In the case of `COc1cc2c(cc1-c1ccccc1)CCCc1c-2nc2ccc(F)cc2c1C(=O)O`, the melting point is > 300 °C.

For the molecule `Cc1ccnc2c1C(=O)CC(c1ccc(F)cc1F)C2` (centres undefined), the melting point lay in the range of 106 to 107 °C.

As to `CC(=O)OC1CC2(CCN(CCCC(=O)c3ccc(F)cc3)C2)c2ccccc21` (centres undefined), the melting point lay in the range of 154 to 156 °C.

In turn, `COc1cccc(CC(=O)c2c(O)c3cccnc3n(-c3ccccc3)c2=O)c1` showed a melting point of 173 to 174 °C.

In the case of `O=C(O)CC1CC(c2ccccc2)c2ccccc21` (centres undefined), the melting point fell in the range of 126 to 129 °C.

For the molecule `CNC1Oc2cc(Cl)cc(-c3ccccc3F)c2O1` (centres undefined), the melting point is > 250 °C.

Molecule `CSc1nc(N)nc(-c2ccccc2)c1-c1ccc(=O)n(C(C)C)n1` registered a melting point of 221 to 222 °C.

`C=CCN1C(=O)C[N+]([O-])=C(c2ccccc2F)c2cc(Cl)ccc21` returned a melting point of 183 °C.

Turning to `CCCCCCCC(=O)OCc1ccccc1-c1nc(-c2cccc(OC)c2)n[nH]1`, the melting point is 61 °C.

As to `CC(C)(OCc1nn(Cc2ccccc2)c2ccccc12)C(=O)NNc1ccccc1`, the melting point was in the range of 124 to 125 °C.

`Nc1ccc(Oc2c(Cl)cc(C(F)(F)F)c(Cl)c2Cl)cc1Cl` gave a melting point of 128 °C.

The molecule `CC(C)(C)[Si](C)(C)Oc1ccc2c(c1)OC(c1ccc(O)cc1)c1c-2sc2cc(O[Si](C)(C)C(C)(C)C)ccc12` (centres undefined) had a melting point of 174 to 175 °C.

Take `CC(C)c1cccc(C(C)C)c1NC(=O)C(Cc1ccccc1)NC(=O)NC(C)(C)C` (centres undefined): the melting point lay in the range of 241 to 242 °C.

For `CNC(=O)COC(=O)N1CCN(CCOc2ccc(Cl)cc2)CC1`, the melting point was 159 to 161 °C.

For `COc1ccc(Cc2nc(N3CCOCC3)c3c(C)c(C#N)sc3n2)cc1OC`, the melting point lay in the range of 67 to 70 °C.

Molecule `CC(C)n1cc(-c2ccc(F)cc2)c(-c2ccc(F)cc2)c1C(=O)O` returned a melting point of 212 °C.

In turn, `O=C1OCCN1CCN1CCN(Cc2ccccc2)CC1` registered a melting point of 82 to 84 °C.
